In patent US4027039A (priority 1975, dated 1977):
Where two headings read alike, the source gives them in different places.

Columns and labels:
[1] = tested on: Influenza B Massachusetts virus; test: Influenza B Mass. in mice, oral; late read day 5 (Table 39), 7 (Table 40), 11 (Tables 61, 65); control fraction 16/20 (Table 61), else 100%; type: in vivo, mouse
Description: A portion of a commercially available sample of amantadine was recrystallized from isopropanol. The activity of the material against Influenza B Mass. was tested for the sample as obtained, the recrystallized portion, and the mother liquor obtained from recrystallizing the portion.

[2] = tested on: Influenza, Ann Arbor virus; test: Influenza Ann Arbor in mice, oral; schedule by table; late read day 5 (Tables 15, 25, 29, 30), 6 (18, 20, 22, 23, 26, 27, 28, 54), 7 (14, 19, 21, 24, 53, 56), 8 (16, 17, 51), 9 (11, 55); type: in vivo, mouse

NC(=S)NN=C1CCCCC1 [Cyclohexanone, thiosemicarBazone, Cyclohexanone, thiosemicarbazone]
No. animals surviving after 5 days (Table 61: 11 days) ([1]; total dose .000005 μg (5 pg)): 7 | No. animals surviving when 100% (Table 61: 16/20) of controls are dead ([1]; total dose .000005 μg (5 pg)): 5 | Survivors ([1]; total dose .000005 μg (5 pg)): 5 | No. animals surviving after 5 days (Table 61: 11 days) ([1]; total dose .00005 μg (50 pg)): 4 | No. animals surviving when 100% (Table 61: 16/20) of controls are dead ([1]; total dose .00005 μg (50 pg)): 3 | Survivors ([1]; total dose .00005 μg (50 pg)): 2 | No. animals surviving after 5 days (Table 61: 11 days) ([1]; total dose .0005 μg (500 pg)): 2 | No. animals surviving when 100% (Table 61: 16/20) of controls are dead ([1]; total dose .0005 μg (500 pg)): 2 | Survivors ([1]; total dose .0005 μg (500 pg)): 2 | No. animals surviving after 5 days (Table 61: 11 days) ([1]; total dose .005 μg (5 ng)): 3 | No. animals surviving when 100% (Table 61: 16/20) of controls are dead ([1]; total dose .005 μg (5 ng)): 2 | Survivors ([1]; total dose .005 μg (5 ng)): 2 | No. animals surviving after 5 days (Table 61: 11 days) ([1]; total dose .05 μg (50 ng)): 7 | No. animals surviving when 100% (Table 61: 16/20) of controls are dead ([1]; total dose .05 μg (50 ng)): 7 | Survivors ([1]; total dose .05 μg (50 ng)): 5 | No. animals surviving after 5 days (Table 61: 11 days) ([1]; total dose .5 μg (500 ng)): 2 | No. animals surviving when 100% (Table 61: 16/20) of controls are dead ([1]; total dose .5 μg (500 ng)): 1 | Survivors ([1]; total dose .5 μg (500 ng)): 1

N#CCC(=O)NN [Cyonacetic Acid Carbazide, Cyanoacetic Acid Hydrazide]
No. animals surviving after 5 days (Table 61: 11 days) ([1]; total dose .000005 μg (5 pg)): 3 | No. animals surviving when 100% (Table 61: 16/20) of controls are dead ([1]; total dose .000005 μg (5 pg)): 3 | Survivors ([1]; total dose .000005 μg (5 pg)): 3 | No. animals surviving after 5 days (Table 61: 11 days) ([1]; total dose .00005 μg (50 pg)): 4 | No. animals surviving when 100% (Table 61: 16/20) of controls are dead ([1]; total dose .00005 μg (50 pg)): 4 | Survivors ([1]; total dose .00005 μg (50 pg)): 4 | No. animals surviving after 5 days (Table 61: 11 days) ([1]; total dose .0005 μg (500 pg)): 8 | No. animals surviving when 100% (Table 61: 16/20) of controls are dead ([1]; total dose .0005 μg (500 pg)): 5 | Survivors ([1]; total dose .0005 μg (500 pg)): 5 | No. animals surviving after 5 days (Table 61: 11 days) ([1]; total dose .005 μg (5 ng)): 2 | No. animals surviving when 100% (Table 61: 16/20) of controls are dead ([1]; total dose .005 μg (5 ng)): 2 | Survivors ([1]; total dose .005 μg (5 ng)): 1 | No. animals surviving after 5 days (Table 61: 11 days) ([1]; total dose .05 μg (50 ng)): 4 | No. animals surviving when 100% (Table 61: 16/20) of controls are dead ([1]; total dose .05 μg (50 ng)): 4 | Survivors ([1]; total dose .05 μg (50 ng)): 3 | No. animals surviving after 5 days (Table 61: 11 days) ([1]; total dose .5 μg (500 ng)): 5 | No. animals surviving when 100% (Table 61: 16/20) of controls are dead ([1]; total dose .5 μg (500 ng)): 4 | Survivors ([1]; total dose .5 μg (500 ng)): 4

NNc1nncc2ccccc12 [Hydralazine, hydralazine, reference compound]
activity in words (Herpes virus; mouse, in vivo): effective

CC(C)=NNC(N)=S [acetone, thiosemicarbazone]
No. animals surviving after 5-7 days ([2]; total dose 30 pg): 3 | Survivors ([2]; total dose 30 pg): 1 | No. animals surviving after 5-7 days ([2]; total dose 300 pg): 2 | Survivors ([2]; total dose 300 pg): 0 | No. animals surviving after 5-7 days ([2]; total dose 3 ng): 2 | Survivors ([2]; total dose 3 ng): 0 | No. animals surviving after 5-7 days ([2]; total dose 30 ng): 2 | Survivors ([2]; total dose 30 ng): 0 | No. animals surviving after 5-7 days ([2]; total dose 300 ng): 3 | Survivors ([2]; total dose 300 ng): 0 | No. animals surviving after 5-7 days ([2]; total dose 3 μg): 5 | Survivors ([2]; total dose 3 μg): 0 | No. animals surviving after 5-7 days ([2]; total dose 30 μg): 2 | Survivors ([2]; total dose 30 μg): 0 | No. animals surviving after 5-7 days ([2]; total dose 300 μg): 3 | Survivors ([2]; total dose 300 μg): 0

NC12CC3CC(CC(C3)C1)C2 [Recrystallized amantadine, amantadine, reference compound]
No. animals surviving after 11 days ([1]; total dose 60 ng): 4 | Survivors ([1]; total dose 60 ng): 2 | No. animals surviving after 11 days ([1]; total dose 600 ng): 3 | Survivors ([1]; total dose 600 ng): 3 | No. animals surviving after 11 days ([1]; total dose 6 μg): 5 | Survivors ([1]; total dose 6 μg): 5 | No. animals surviving after 11 days ([1]; total dose 60 μg): 5 | Survivors ([1]; total dose 60 μg): 2 | No. animals surviving after 11 days ([1]; total dose 600 μg): 3 | Survivors ([1]; total dose 600 μg): 2 | No. animals surviving after 11 days ([1]; total dose 6 mg): 6 | Survivors ([1]; total dose 6 mg): 4

CCC(CC)=NNC(N)=S [3-pentanone, thiosemicarbazone]
No. animals surviving after 5-7 days ([2]; total dose 30 pg): 2 | Survivors ([2]; total dose 30 pg): 0 | No. animals surviving after 5-7 days ([2]; total dose 300 pg): 1 | Survivors ([2]; total dose 300 pg): 0 | No. animals surviving after 5-7 days ([2]; total dose 3 ng): 3 | Survivors ([2]; total dose 3 ng): 0 | No. animals surviving after 5-7 days ([2]; total dose 30 ng): 0 | Survivors ([2]; total dose 30 ng): 0 | No. animals surviving after 5-7 days ([2]; total dose 300 ng): 3 | Survivors ([2]; total dose 300 ng): 0 | No. animals surviving after 5-7 days ([2]; total dose 3 μg): 6 | Survivors ([2]; total dose 3 μg): 1 | No. animals surviving after 7 days ([2]; total dose 12 μg): 1 | Survivors ([2]; total dose 12 μg): 0 | No. animals surviving after 7 days ([2]; total dose 18 μg): 1 | Survivors ([2]; total dose 18 μg): 1 | No. animals surviving after 7 days ([2]; total dose 24 μg): 0 | Survivors ([2]; total dose 24 μg): 0 | No. animals surviving after 5-7 days ([2]; total dose 30 μg): 7 | Survivors ([2]; total dose 30 μg): 0 | No. animals surviving after 7 days ([2]; total dose 60 μg): 1 | Survivors ([2]; total dose 60 μg): 0 | No. animals surviving after 7 days ([2]; total dose 90 μg): 3 | Survivors ([2]; total dose 90 μg): 0 | No. animals surviving after 7 days ([2]; total dose 120 μg): 1 | Survivors ([2]; total dose 120 μg): 1 | No. animals surviving after 7 days ([2]; total dose 150 μg): 2 | Survivors ([2]; total dose 150 μg): 1 | No. animals surviving after 5-7 days ([2]; total dose 300 μg): 4 | Survivors ([2]; total dose 300 μg): 0

NNC(=S)NC12CC3CC(CC(C3)C1)C2
No. animals surviving when 18/20 of controls are dead (Herpes virus; total dose 4 pg): 1 | Survivors (Herpes virus; total dose 4 pg): 1 | No. animals surviving when 18/20 of controls are dead (Herpes virus; total dose 40 pg): 1 | Survivors (Herpes virus; total dose 40 pg): 1 | No. animals surviving when 18/20 of controls are dead (Herpes virus; total dose 400 pg): 3 | Survivors (Herpes virus; total dose 400 pg): 3 | No. animals surviving when 18/20 of controls are dead (Herpes virus; total dose 4 ng): 2 | Survivors (Herpes virus; total dose 4 ng): 2 | No. animals surviving when 18/20 of controls are dead (Herpes virus; total dose 40 ng): 2 | Survivors (Herpes virus; total dose 40 ng): 2 | No. animals surviving when 18/20 of controls are dead (Herpes virus; total dose 400 ng): 3 | Survivors (Herpes virus; total dose 400 ng): 3

C=CCNC(=S)NN=C1Cc2ccccc2C1 [2-Indanone, 4-allylthiosemicarbazone]
No. animals surviving after 5-7 days ([2]; total dose 30 pg): 4 | Survivors ([2]; total dose 30 pg): 0 | No. animals surviving after 5-7 days ([2]; total dose 300 pg): 7 | Survivors ([2]; total dose 300 pg): 0 | No. animals surviving after 5-7 days ([2]; total dose 3 ng): 4 | Survivors ([2]; total dose 3 ng): 0 | No. animals surviving after 5-7 days ([2]; total dose 30 ng): 6 | Survivors ([2]; total dose 30 ng): 0 | No. animals surviving after 5-7 days ([2]; total dose 300 ng): 6 | Survivors ([2]; total dose 300 ng): 0 | No. animals surviving after 5-7 days ([2]; total dose 3 μg): 2 | Survivors ([2]; total dose 3 μg): 0 | No. animals surviving after 5-7 days ([2]; total dose 30 μg): 6 | Survivors ([2]; total dose 30 μg): 0 | No. animals surviving after 5-7 days ([2]; total dose 300 μg): 2 | Survivors ([2]; total dose 300 μg): 0 | No. animals surviving after 5-7 days ([2]; total dose 3 mg): 4 | Survivors ([2]; total dose 3 mg): 1
